Assays:
[1] = Inhibition of NS5A in HCV genotype 1b infected in […] cells assessed as reduction in viral replication incubated for 48 hrs by luciferase reporter gene assay
[2] = Inhibition of NS5A in HCV genotype 1a infected in […] cells assessed as reduction in viral replication incubated for 48 hrs by luciferase reporter gene assay
[3] = Inhibition of NS5A in HCV genotype 2a con infected in […] cells assessed as reduction in viral replication incubated for 48 hrs by luciferase reporter gene assay
[4] = Inhibition of NS5A in patient-derived HCV genotype 3a infected in […] cells assessed as reduction in viral replication incubated for 48 hrs by luciferase reporter gene assay
[5] = Inhibition of NS5A in HCV genotype 3a con infected in […] cells assessed as reduction in viral replication incubated for 48 hrs by luciferase reporter gene assay
[6] = Inhibition of NS5A in patient-derived HCV genotype 2a infected in […] cells assessed as reduction in viral replication incubated for 48 hrs by luciferase reporter gene assay

| SMILES | EC50 [1] | EC50 [2] | EC50 [3] | EC50 [4] | EC50 [5] | EC50 [6] |
| --- | --- | --- | --- | --- | --- | --- |
| COC(=O)N[C@@H](CO)C(=O)N1[C@H](c2ncc(-c3ccc4c(c3)-c3ccc(-c5cnc([C@@H]6C[C@@H]7CCC[C@@H]7N6C(=O)[C@H](CO)NC(=O)OC)[nH]5)cc3-4)[nH]2)C[C@@H]2CCC[C@@H]21 | 0.009 nM | 0.055 nM | 8.91 nM |  |  |  |
| COC(=O)N[C@H](C(=O)N1[C@H](c2ncc(-c3ccc4c(c3)-c3ccc(-c5cnc([C@@H]6C[C@@H]7CCCC[C@@H]7N6C(=O)[C@@H](NC(=O)OC)C(C)C)[nH]5)cc3-4)[nH]2)C[C@@H]2CCCC[C@@H]21)C(C)C |  | 0.02 nM | 3.33 nM |  |  |  |
| COC(=O)N[C@H](C(=O)N1CCC[C@H]1c1nc(-c2ccc(-c3ccc(-c4c[nH]c([C@@H]5CCCN5C(=O)[C@@H](NC(=O)OC)C(C)C)n4)cc3)cc2)c[nH]1)C(C)C [BMS-790052] | 0.008 nM | 0.032 nM | 52.8 nM | 0.115 nM | 0.412 nM | 49.4 nM |
| COC(=O)N[C@H](C(=O)N1CCC[C@H]1c1ncc(-c2ccc3c(c2)-c2ccc(-c4cnc([C@@H]5CCCN5C(=O)[C@@H](c5ccccc5)N(C)C)[nH]4)cc2-3)[nH]1)C(C)C | 0.014 nM | 0.053 nM | 1.47 nM |  |  |  |
| COC(=O)N[C@H](C(=O)N1[C@H](c2ncc(-c3ccc4c(c3)CCc3cc(-c5cnc([C@@H]6C[C@@H]7CCC[C@@H]7N6C(=O)[C@@H](NC(=O)OC)[C@@H](C)OC)[nH]5)ccc3-4)[nH]2)C[C@@H]2CCC[C@@H]21)[C@@H](C)OC | 0.015 nM | 0.017 nM |  |  |  |  |
| COC(=O)N[C@H](C(=O)N1[C@H](c2ncc(-c3ccc4c(c3)Oc3ccc(-c5cnc([C@@H]6C[C@@H]7CCC[C@@H]7N6C(=O)[C@@H](NC(=O)OC)[C@@H](C)OC)[nH]5)cc3O4)[nH]2)C[C@@H]2CCC[C@@H]21)[C@@H](C)OC | 0.007 nM | 0.012 nM |  |  |  |  |
| COC(=O)N[C@H](C(=O)N1[C@H](c2ncc(-c3ccc4c(c3)C(F)(F)c3cc(-c5cnc([C@@H]6C[C@@H]7CCC[C@@H]7N6C(=O)[C@@H](NC(=O)OC)[C@@H](C)OC)[nH]5)ccc3-4)[nH]2)C[C@@H]2CCC[C@@H]21)[C@@H](C)OC | 0.017 nM | 0.029 nM |  |  |  |  |
| COC(=O)N[C@H](C(=O)N1[C@H](c2ncc(-c3ccc4c(c3)-c3ccc(-c5cnc([C@@H]6C[C@@H]7CCC[C@@H]7N6C(=O)[C@@H](NC(=O)OC)[C@@H](C)OC)[nH]5)cc3-4)[nH]2)C[C@@H]2CCC[C@@H]21)[C@@H](C)O | 0.008 nM | 0.014 nM | 0.188 nM | 0.006 nM |  | 1.03 nM |
| COC(=O)N[C@H](C(=O)N1[C@H](c2ncc(-c3ccc4c(c3)Cc3cc(-c5cnc([C@@H]6C[C@@H]7CCC[C@@H]7N6C(=O)[C@@H](NC(=O)OC)[C@@H](C)OC)[nH]5)ccc3-4)[nH]2)C[C@@H]2CCC[C@@H]21)[C@@H](C)OC | 0.022 nM | 0.041 nM |  |  |  |  |
| COC(=O)N[C@H](C(=O)N1[C@H](c2ncc(-c3ccc4c(c3)Cc3ccc(-c5cnc([C@@H]6C[C@@H]7CCC[C@@H]7N6C(=O)[C@@H](NC(=O)OC)[C@@H](C)OC)[nH]5)cc3C4)[nH]2)C[C@@H]2CCC[C@@H]21)[C@@H](C)OC | 0.02 nM | 0.03 nM |  |  |  |  |

Results, then the compound that gave them:

| EC50 [1] | EC50 [2] | EC50 [3] | EC50 [4] | EC50 [5] | EC50 [6] | SMILES |
| --- | --- | --- | --- | --- | --- | --- |
| 0.028 nM | 0.081 nM |  |  |  |  | COC(=O)N[C@H](C(=O)N1[C@H](c2ncc(-c3ccc4c(c3)S(=O)(=O)c3cc(-c5cnc([C@@H]6C[C@@H]7CCC[C@@H]7N6C(=O)[C@@H](NC(=O)OC)[C@@H](C)OC)[nH]5)ccc3-4)[nH]2)C[C@@H]2CCC[C@@H]21)[C@@H](C)OC |
|  | 0.01 nM | 4.52 nM |  |  |  | COC(=O)N[C@H](C(=O)N1[C@H](c2ncc(-c3ccc4c(c3)-c3ccc(-c5cnc([C@@H]6C[C@@H]7CCC[C@@H]7N6C(=O)[C@@H](NC(=O)OC)C(C)C)[nH]5)cc3-4)[nH]2)C[C@@H]2CCC[C@@H]21)C(C)C |
| 0.01 nM | 0.302 nM | 35.1 nM |  |  |  | COC(=O)N[C@H](C(=O)N1[C@H](c2ncc(-c3ccc4c(c3)-c3ccc(-c5cnc([C@@H]6C[C@@H]7CCC[C@@H]7N6C(=O)[C@@H](NC(=O)OC)[C@H](C)O)[nH]5)cc3-4)[nH]2)C[C@@H]2CCC[C@@H]21)[C@H](C)O |
|  | 0.009 nM | 12.2 nM |  |  |  | COC(=O)N[C@H](C(=O)N1CCC[C@H]1c1ncc(-c2ccc3c(c2)-c2ccc(-c4cnc([C@@H]5C[C@@H]6CCCC[C@@H]6N5C(=O)[C@@H](NC(=O)OC)C(C)C)[nH]4)cc2-3)[nH]1)C(C)C |
| 0.028 nM | 0.148 nM |  |  |  |  | COC(=O)N[C@H](C(=O)N1[C@H](c2ncc(-c3ccc4c5ccc(-c6cnc([C@@H]7C[C@@H]8CCC[C@@H]8N7C(=O)[C@@H](NC(=O)OC)[C@@H](C)OC)[nH]6)cc5n(C)c4c3)[nH]2)C[C@@H]2CCC[C@@H]21)[C@@H](C)OC |
| 0.008 nM | 0.044 nM | 32 nM | 0.018 nM | < 0.025 nM | 48.8 nM | COC(=O)N[C@H](C(=O)N1CCC[C@H]1c1ncc(-c2ccc3c(c2)-c2ccc(-c4cnc([C@@H]5CCCN5C(=O)[C@@H](NC(=O)OC)C(C)C)[nH]4)cc2-3)[nH]1)C(C)C |
| 0.006 nM | 0.013 nM | 0.97 nM |  |  |  | COC(=O)N[C@H](C(=O)N1[C@H](c2ncc(-c3ccc4c(c3)-c3ccc(-c5cnc([C@@H]6C[C@@H]7CCC[C@@H]7N6C(=O)[C@@H](NC(=O)OC)[C@@H](C)O)[nH]5)cc3-4)[nH]2)C[C@@H]2CCC[C@@H]21)C(C)C |
|  | 0.011 nM | 0.141 nM | 0.005 nM | 0.018 nM | 1.06 nM | COC(=O)N[C@H](C(=O)N1[C@H](c2ncc(-c3ccc4c(c3)-c3ccc(-c5cnc([C@@H]6C[C@@H]7CCC[C@@H]7N6C(=O)[C@@H](NC(=O)OC)[C@@H](C)O)[nH]5)cc3-4)[nH]2)C[C@@H]2CCC[C@@H]21)[C@@H](C)O |
|  | 0.02 nM | 4.37 nM |  |  |  | COC(=O)N[C@@H](CO)C(=O)N1[C@H](c2ncc(-c3ccc4c(c3)-c3ccc(-c5cnc([C@@H]6C[C@@H]7CCC[C@@H]7N6C(=O)[C@@H](NC(=O)OC)C(C)C)[nH]5)cc3-4)[nH]2)C[C@@H]2CCC[C@@H]21 |
| 0.081 nM | 0.248 nM | 0.327 nM |  |  |  | CN(C)[C@@H](C(=O)N1CCC[C@H]1c1ncc(-c2ccc3c(c2)-c2ccc(-c4cnc([C@@H]5CCCN5C(=O)[C@@H](c5ccccc5)N(C)C)[nH]4)cc2-3)[nH]1)c1ccccc1 |
| 0.008 nM | 0.01 nM | 0.115 nM | 0.003 nM | 0.02 nM | 0.664 nM | COC(=O)N[C@H](C(=O)N1[C@H](c2ncc(-c3ccc4c(c3)-c3ccc(-c5cnc([C@@H]6C[C@@H]7CCC[C@@H]7N6C(=O)[C@@H](NC(=O)OC)[C@@H](C)OC)[nH]5)cc3-4)[nH]2)C[C@@H]2CCC[C@@H]21)[C@@H](C)OC |

From BindingDB's records for doi:10.1021/acs.jmedchem.9b02176 (Glaxosmithkline, 2020)
